Assay [1] deals with Chinese hamster ovary (CHO) cells. The settings on record: 8 mM ammonia; cited from earlier work.
In assay [2] the test system is CHO cells. The assay can be described thus: Viable cell density, scanner-based imaging (Cedex HiRes), Examples 3 and 4. The settings on record: 8 mM galactose added to glutamine-free 2×HT medium; FIG. 5B. Also noted: species or system Chinese hamster. The procedure: (§1) Cells were prepared using the same method as that used in Example 1, and a glutamine-free and 2×HT-containing medium was added to the prepared cells. 4 mM of uridine (catalog No.: U3003, Sigma) or 8 mM of galactose (Catalog No.: G0750, Sigma) was added to the medium. The cells were cultured at 37° C. and 5% CO2, and the medium was replaced with a fresh medium every two days. Cells cultured in a glutamine-free medium were used as a negative control.
(§2) After about 14 days, viable cell density and cell viability were measured using a Cedex HiRes analyzer (Model No.: 05650216001, Roche) through a scanner-based imaging method and a Trypan blue exclusion method. The viable cell density (CHO cells/ml) of cells cultured in the presence of uridine and in the presence of galactose is illustrated in FIGS. 5A and 5B, respectively. In addition, the cell viability (%) of cells cultured in the presence of uridine and in the presence of galactose is illustrated in FIGS. 6A and 6B, respectively.
Cells were prepared using the same method as that used in Example 1, and a glutamine-free and 2×HT-containing medium was added to the prepared cells. […]
After about 14 days, viable cell density and cell viability were measured using a Cedex HiRes analyzer (Model No.: 05650216001, Roche) through a scanner-based imaging method and a Trypan blue exclusion method, respectively. […]

Assay [3] relates to CHO cells. The assay can be described thus: Cell viability, Trypan blue exclusion method (Cedex HiRes), Examples 3 and 4. It is filed as cell-based, Chinese hamster. The settings on record: for cell viability: 14 days after the culture. The procedure:
as §1, §2
Cells were prepared using the same method as that used in Example 1, and a glutamine-free and 2×HT-containing medium was added to the prepared cells. 1 mM of magnesium (Catalog No.: M4880, Sigma) was added to the medium. The cells were cultured at 37° C. and 5% CO2, and the medium was replaced with a fresh medium every two days. Cells cultured in a glutamine-free medium were used as a negative control.
After about 14 days, viable cell density and cell viability were measured using a Cedex HiRes analyzer (Model No.: 05650216001, Roche) through a scanner-based imaging method and a Trypan blue exclusion method, respectively. The viable cell density (CHO cells/ml) and cell viability of the cells cultured in the presence of magnesium are illustrated in FIGS. 7 and 8, respectively.

For the compound `N` [ammonia], in assay [1], the “inhibition of cell growth” value is given as 50%.

Regarding `O=C[C@H](O)[C@@H](O)[C@@H](O)[C@H](O)CO` [galactose, reference compound], the “viable cell density, versus medium without galactose” value in assay [2] is “no significant difference”. For the same compound, in assay [3] (8 mM galactose added to glutamine-free 2×HT medium, FIG. 6B), the “cell viability (printed: viable cell density), versus medium without galactose” value is “no significant difference”.

The cell viability is the share of living cells, or the viability signal relative to a control. In assay [3] (1 mM magnesium added to glutamine-free 2×HT medium), `[Mg+2]` [magnesium] registered a cell viability of 91.5%.

With `O=c1ccn([C@@H]2O[C@H](CO)[C@@H](O)[C@H]2O)c(=O)[nH]1` [uridine], the cell viability in assay [3] (4 mM uridine added to glutamine-free 2×HT medium) was found to be 94.6%.

The record behind these values is patent US20230203554A1, “PROCESS FOR REDUCING UNWANTED CULTURE BYPRODUCTS IN CELL CULTURE MEDIUM” (SAMSUNG BIOEPIS CO., LTD., priority 2016, published 2023).
